Data taken from patent US12018023B2 (NERVIANO MEDICAL SCIENCES S.R.L., priority 2018, dated 2024).

Experiments:
[1] = system: U87MG_IDH1R132H; assay: Cellular 2-HG production assay, U87-MG-IDH1 R132H; format: cell-based; details: inhibition of 2HG production, 72 hr incubation, LC-MS/MS
How it was run: (§1)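 Cells in E-MEM/10% FCS (G418 500 μg/mL for the transfected U87-MG line) at 500 per well got compound 24 h after seeding and were incubated 72 h at 37 °C. Medium 2-HG was measured by LC-MS/MS with 2-HG-d3 internal standard; IC50 came from sigmoidal fitting versus controls.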

[2] = molecular target: T1, IDH1^R132H homodimer enzyme (Homo sapiens, UniProt O75874, R132H); assay: NADPH depletion assay, IDH1 R132H; format: biochemical
T1 construct: purchased not specified
How it was run: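 IDH1 R132H enzyme (8 nM as diluted) in Tris-HCl pH 7.6 with 10 mM MgCl2, 0.001% Triton X-100 and 4 mM β-mercaptoethanol is preincubated 15 min at RT with compound. Substrate mix (12 uM NADPH, 3.4 mM α-ketoglutarate) is added for 60 min; remaining NAD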

[3] = molecular target: T2, IDH1WT enzyme (Homo sapiens, UniProt O75874); assay: Enzymatic assay for IDH1 wild-type (NADPH forming assay); format: biochemical
T2 construct: purchased not specified
Method: IDH1WT enzymatic activity converting isocitric acid to alpha-ketoglutarate is measured using a NADPH forming assay. In the assay the forming cofactor is measured in continuous with the addition of a catalytic excess of diaphorase and resazurin, to generate a fluorescent signal in proportion to the amount of NADPH forming.
Compounds were preincubated with the enzyme, then the reaction was started by the addition of NADP^+, isocitrate, diaphorase and a corresponding substrate, resazurin. Diaphorase reduces resazurin to the highly fluorescent resorufin with the concomitant oxidation of NADPH to NADP. Specifically, 0.2 uL of test compound, previously serially diluted 1 to 3, 10 experimental points from 1 mM in DMSO, was added to 0.016 nM IDH1WT enzyme in 10 μL of Assay Buffer (150 mM NaCl, 50 mM Tris-HCl pH 7.6, 10 mM MgCl2, 0.001% Triton X-100, 4 mM β-mercaptoethanol); the mixture is incubated for 15 minutes at room temperature. The reaction is started with the addition of 10 μL of Substrate Mix (400 μM NADP^+, 40 μM iso-citrate, 5 ugr/mL Diaphorase and 7 μM resazurin in Assay Buffer), the mixture is incubated at room temperature and the reaction is reading on a ViewLux as platereader at Ex544/Em590 in continuous.

[4] = system: HT-1080 (IDH1^R132C); assay: Cellular 2-HG production assay, HT-1080; format: cell-based; details: Homo sapiens, HT-1080, 72 h, inhibition of 2HG production, 72 hr incubation, LC-MS/MS; read-out: HT1080 2-HG IC50
How it was run: as §1

[5] = molecular target: T3, IDH2^R172K (Homo sapiens, UniProt P48735, R172K); assay: NADPH depletion assay, IDH2 R172K; format: biochemical
T3 construct: purchased not specified
T3 sequence (P48735 40-452 R172K): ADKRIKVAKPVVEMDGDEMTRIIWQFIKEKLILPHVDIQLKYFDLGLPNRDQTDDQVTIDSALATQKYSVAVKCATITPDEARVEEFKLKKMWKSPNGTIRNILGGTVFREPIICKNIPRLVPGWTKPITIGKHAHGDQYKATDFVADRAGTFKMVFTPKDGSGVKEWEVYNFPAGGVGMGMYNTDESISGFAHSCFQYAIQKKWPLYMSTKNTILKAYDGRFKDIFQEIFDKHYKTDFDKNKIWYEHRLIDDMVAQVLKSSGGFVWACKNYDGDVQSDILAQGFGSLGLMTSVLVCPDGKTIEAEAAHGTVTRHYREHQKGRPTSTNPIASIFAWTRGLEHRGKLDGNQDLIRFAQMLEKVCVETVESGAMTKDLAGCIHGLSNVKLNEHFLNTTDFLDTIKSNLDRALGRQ
How it was run: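 IDH2 R172K (16 nM) was preincubated 15 min at RT with compound (1:3 series from 1 mM in DMSO) in Tris pH 7.6/NaCl/MgCl2/Triton/β-mercaptoethanol. The reaction ran 60 min at RT with 0.55 mM alpha-ketoglutarate and NADPH (12 μM in the substrate mix). Remaining NADPH was read with diaphorase/resazurin fluorescence at Ex544/Em590.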

[6] = molecular target: T4, IDH1^R132C (Homo sapiens, UniProt O75874, R132C); assay: NADPH depletion assay, IDH1 R132C; format: biochemical
T4 construct: purchased not specified
How it was run: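 IDH1 R132C (2 nM) preincubated 15 min at RT with compound in Tris-HCl pH 7.6/MgCl2 buffer, then 60 min RT with NADPH and 0.14 mM alpha-ketoglutarate. Remaining NADPH read by diaphorase/resazurin fluorescence (Ex544/Em590).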

T1 sequence (O75874 whole entry R132H): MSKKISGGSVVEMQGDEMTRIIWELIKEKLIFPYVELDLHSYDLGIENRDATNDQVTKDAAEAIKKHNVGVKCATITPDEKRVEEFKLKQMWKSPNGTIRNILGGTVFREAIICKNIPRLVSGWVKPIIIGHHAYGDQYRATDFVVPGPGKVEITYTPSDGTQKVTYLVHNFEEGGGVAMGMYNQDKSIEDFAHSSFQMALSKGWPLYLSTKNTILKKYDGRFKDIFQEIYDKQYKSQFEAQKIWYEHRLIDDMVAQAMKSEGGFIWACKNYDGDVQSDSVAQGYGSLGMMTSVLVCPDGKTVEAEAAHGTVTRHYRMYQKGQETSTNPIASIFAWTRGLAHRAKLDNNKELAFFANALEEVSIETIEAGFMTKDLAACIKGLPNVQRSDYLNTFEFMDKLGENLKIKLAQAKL
T4 sequence (O75874 whole entry R132C): as the sequence (O75874 whole entry R132H) above, with H132C counted along it
T2 sequence (O75874 whole entry): as the sequence (O75874 whole entry R132H) above, with H132R counted along it

SMILES	IC50 [1]	IC50 [2]	IC50 [3]	IC50 [4]	IC50 [5]	IC50 [6]
C=CC(=O)N1CCN(Cc2ccc([C@H](C)Nc3ncc4ccc(=O)n(CC(C)(C)CO)c4n3)cc2)CC1 [cpd 140, 2-{(S)-1-[4-(4-Acryloyl-piperazin-1-ylmethyl)-phenyl]-ethylamino}-8-(3-hydroxy-2,2-dimethyl-propyl)-8H-pyrido [2,3-d]pyrimidin-7-one]	10 nM	249 nM	4850 nM	108 nM	3230 nM	115 nM
C=CC(=O)N1CCN(C(CC2CC2)c2ccc([C@H](C)Nc3ncc4ccc(=O)n(C(C)C)c4n3)cc2)CC1 (stereo partly drawn) [cpd 220, 2-{[(1S)-1-{4-[1-(4-acryloylpiperazin-1-yl)-2-cyclopropylethyl]phenyl}ethyl]amino}-8-(propan-2-yl)pyrido[2,3-d]pyrimidin-7(8H)-one]	0.5 nM	1 nM	53 nM	0.3 nM	15 nM	1 nM

More lines, in order of falling IC50 [1], values ahead:

IC50 [1]	IC50 [2]	IC50 [3]	IC50 [4]	IC50 [5]	IC50 [6]	SMILES
0.6 nM	2 nM	27.3 nM	0.8 nM	25 nM	2 nM	C=CC(=O)N1CCN([C@H](CC)c2ccc([C@H](C)Nc3ncc4ccc(=O)n(C(C)C)c4n3)cc2)CC1 [cpd 228, 2-{[(1S)-1-{4-[(1R)-1-(4-acryloylpiperazin-1-yl)propyl]phenyl}ethyl]amino}-8-(propan-2-yl)pyrido[2,3-d]pyrimidin-7(8H)-one]
0.4 nM	1 nM	52 nM	0.4 nM	6 nM	1 nM	C=CC(=O)N1CCN(C(CC2CC2)c2ccc([C@H](C)Nc3ncc4ccc(=O)n(CC)c4n3)cc2)CC1 (stereo partly drawn) [cpd 219, 2-{[(1S)-1-{4-[1-(4-acryloylpiperazin-1-yl)-2-cyclopropylethyl]phenyl}ethyl]amino}-8-ethylpyrido[2,3-d]pyrimidin-7(8H)-one]
0.4 nM	7 nM	109 nM	1.4 nM	49 nM	5 nM	C=CC(=O)N1CCN([C@@H](CC)c2ccc([C@H](C)Nc3ncc4ccc(=O)n(C(C)C)c4n3)cc2)CC1 [cpd 227, 2-{[(1S)-1-{4-[(1S)-1-(4-acryloylpiperazin-1-yl)propyl]phenyl}ethyl]amino}-8-(propan-2-yl)pyrido[2,3-d]pyrimidin-7(8H)-one]
0.4 nM	1 nM	39 nM	0.4 nM	11 nM	1 nM	C=CC(=O)N1CCN([C@@H](CC2CC2)c2ccc([C@H](C)Nc3ncc4ccc(=O)n(C(C)C)c4n3)cc2)CC1 [cpd 230, 2-{[(1S)-1-{4-[(1S)-1-(4-acryloylpiperazin-1-yl)-2-cyclopropylethyl]phenyl}ethyl]amino}-8-(propan-2-yl) pyrido [2,3-d]pyrimidin-7(8H)-one]
